Experimental data taken from patent US9186318B2, “Quinolyl-containing hydroxamic acid compound and preparation method thereof, and pharmaceutical composition containing this compound and use thereof” (Beijing Konruns Pharmaceutical Co., Ltd, priority 2011, dated 2015).

Columns and labels:
[1] = Body weight of mice in the anti-tumor experiment; assay type: in vivo, BALB/c-nu/nu mice; settings: treatment group, 75 mg/kg oral once a day; after 14 days treatment
Description: GTL-16 gastric cancer cells were firstly cultured: GTL-16 cell lines were inoculated in RPM 1-1640 culture medium contain 10% FBS, 100 U/ml penicillin, 100 U/ml streptomycin and cultured under the condition of 37° C., 5% CO2 and 100% humidity in a carbon dioxide incubator. The logarithmic growth phase reached upon 24 h, and the cells completely covered the bottom of the culture flask at approximately 48 h after inoculation. Those with 80% of GTL-16 cells covering the bottom of the culture flask were digested and centrifuged at 1000 r/min for 5 min. The cells were diluted to 2×10^7/ml, and implanted subcutaneously in the right anterior axillary of the nude mice at 0.1 mL per mouse. Starting from 12 days after inoculation of tumor cells, the weight of the tumor-bearing nude mice and the size of tumors were measured, and the mice with tumor sizes ranging from 150-200 mm^3 were randomly divided into vehicle control group (Vehicle was 0.25% methanesulfonic acid) and treatment group in which the mice were treated with N1′-[3-fluoro-4-[[7-[[1-[2-(hydroxyamino)-2-oxoethyl]-4-piperidyl]methoxy]-6-methoxy-4-quinolyl]oxy]phenyl]-N1-(4-fluorophenyl)cyclopropane-1,1-dicarboxamide prepared in Example 1 with 6 mice each group. […] The tumor size of each animal was measured every 2 days. […]

[2] = system: GTL-16 gastric cancer cells; experiment: Anti-tumor experiment in xenograft nude mice; assay type: in vivo, BALB/c-nu/nu mice; settings: GTL-16 xenograft nude mice, 75 mg/kg oral gavage once a day; for Tumor Growth Inhibition (TGI): 14 days; for average tumor volume: after 14 days, mean±SD, n=6
Source text: In this example, N1′-[3-fluoro-4-[[7-[[1-[2-(hydroxyamino)-2-oxoethyl]-4-piperidyl]methoxy]-6-methoxy-4-quinolyl]oxy]phenyl]-N1-(4-fluorophenyl)cyclopropane-1,1-dicarboxamide prepared in Example 1 was used to conduct anti-tumor experiment in xenograft nude mice animal models of human gastric cancer. The method and results of the experiment were as follows.
4 to 5-week-old SPF level female BALB/c-nu/nu mice with body weight of 12 g to 16 g were purchased from Beijing Vital River Laboratory Animal Technology Co., Ltd., with the production license number: SCXK (Beijing) 2006. GTL-16 gastric cancer cells were purchased from Shanghai Institutes for Biological Sciences Cell Resource Center. RPM 1-1640 cell culture media, fetal bovine serum (FBS) and trypsin digestion solution were purchased from Gibco. Various antibiotics were purchased from Sigma.
GTL-16 gastric cancer cells were firstly cultured: GTL-16 cell lines were inoculated in RPM 1-1640 culture medium contain 10% FBS, 100 U/ml penicillin, 100 U/ml streptomycin and cultured under the condition of 37° C., 5% CO2 and 100% humidity in a carbon dioxide incubator. The logarithmic growth phase reached upon 24 h, and the cells completely covered the bottom of the culture flask at approximately 48 h after inoculation. Those with 80% of GTL-16 cells covering the bottom of the culture flask were digested and centrifuged at 1000 r/min for 5 min. The cells were diluted to 2×10^7/ml, and implanted subcutaneously in the right anterior axillary of the nude mice at 0.1 mL per mouse. Starting from 12 days after inoculation of tumor cells, the weight of the tumor-bearing nude mice and the size of tumors were measured, and the mice with tumor sizes ranging from 150-200 mm^3 were randomly divided into vehicle control group (Vehicle was 0.25% methanesulfonic acid) and treatment group in which the mice were treated with N1′-[3-fluoro-4-[[7-[[1-[2-(hydroxyamino)-2-oxoethyl]-4-piperidyl]methoxy]-6-methoxy-4-quinolyl]oxy]phenyl]-N1-(4-fluorophenyl)cyclopropane-1,1-dicarboxamide prepared in Example 1 with 6 mice each group. Thereafter, the nude mice were weighed daily and the oral administrations were performed at 0.1 mL/10 g body-weight through oral gavage method (75 mg/kg, once a day). The tumor size of each animal was measured every 2 days. 14 days later, the tumor-bearing mice were sacrificed by cervical dislocation and the tumors were removed and weighed. The calculation method of Tumor Growth Inhibition (TGI) was as follows: the experimental data were represented by mean±SD; TGI=[(Vvehicle group−Vtreatment group)÷Vvehicle group]×100%, wherein Vvehicle group represented the mice tumor volume of the vehicle group and Vtreatment group represented the mice tumor volume of the treatment group. […]

SMILES	weight variation of mice [1]	Tumor Growth Inhibition (TGI) [2]	average tumor volume [2]
COc1cc2c(Oc3ccc(NC(=O)C4(C(=O)Nc5ccc(F)cc5)CC4)cc3F)ccnc2cc1OCC1CCN(CC(=O)NO)CC1 [Example 1, N1′-[3-fluoro-4-[[7-[[1-[2-(hydroxyamino)-2-oxoethyl]-4-piperidyl]methoxy]-6-methoxy-4-quinolyl]oxy]phenyl]-N1-(4-fluorophenyl)cyclopropane-1,1-dicarboxamide]	< 10%	65%	630.9±354.6 mm^3
COc1cc2c(Oc3ccc(NC(=O)C4(C(=O)Nc5ccc(F)cc5)CC4)cc3F)ccnc2cc1OCCCC(=O)NO [Example 9, N1′-[3-fluoro-4-[[7-[4-(hydroxyamino)-4-oxobutoxy]-6-methoxy-4-quinolyl]oxy]phenyl]-N1-(4-fluorophenyl)cyclopropane-1,1-dicarboxamide]	–	87%	241.1±131.4 mm^3
